Assay [1] deals with HCV NS3/4A protease complex, BMS strain (UniProt P27958, C1454S/C1711G, species not given/STRAIN_BMS). Briefly: Recombinant HCV NS3/4A protease complex FRET peptide assay (BMS strain). The assay is classed as biochemical, HCV genotype 1a. An outline of the steps:
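Recombinant BMS-strain NS3/4A (His-tagged NS4A with three-lysine tail, E. coli) at 2-3 nM preincubated 1 min with compound, then 2 μM ester-linked NS4A/NS4B-based FRET peptide added. Fluorescence followed in real time ~15 min at 25° C. Percent inhibition from slope of linear fluorescence change versus no-compound control.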

Assay [2] concerns HCV replicon in Huh7 cells. As to the kind of experiment: HCV replicon cell-based assay. Set-up: species or system HCV strain 1B. The settings on record: Hepatitis C virus, Huh-7; HCV replicon, Huh7 cells; read-out: EC50 range.
The mark [3] stands for this setting: NS3/4A BMS strain; read-out: IC50 range.
Where [4] appears, read: read-out: IC50 range; NS3/4A BMS strain.

Read-outs that look alike come from different tables or passages of the source.

In the case of `C=C[C@@H]1C[C@]1(NC(=O)[C@@H]1C[C@@H](Oc2cc(-c3ccc(OC)cc3)nc3c(C)noc23)CN1C(=O)[C@@H](NC(=O)OC(C)(C)C)C(C)(C)C)C(=O)NS(=O)(=O)C1CC1` [Compound 3], the IC50 in assay [1] (setting [3]) is below 100 nM. The EC50 in assay [2] was below 100 nM.
Take `C=C[C@@H]1C[C@]1(NC(=O)[C@@H]1C[C@@H](Oc2nccc3cccc(OC)c23)CN1C(=O)[C@@H](NC(=O)OC(C)(C)C)C(C)(C)C)C(=O)NS(=O)(=O)C1CC1` [Compound 264]: the IC50 in assay [1] (setting [3]) fell in the range of 100 to 1000 nM. The EC50 in assay [2] is 1000 to 10000 nM.
The like results for `C=CC1C[C@]1(NC(=O)[C@@H]1C[C@@H](Oc2nc(-c3cccc(N(C)C)c3)cc3cc(OC)ccc23)CN1C(=O)[C@@H](NC(=O)OC(C)(C)C)C(C)(C)C)C(=O)NS(=O)(=O)C1CC1` (stereo partly shown) [Compound 330] were, in that order, below 100 nM and below 100 nM.
On to `C=C[C@@H]1C[C@]1(NC(=O)[C@@H]1C[C@@H](Oc2nccc3cc(OC)ccc23)CN1C(=O)[C@@H](NC(=O)OC1CCCC1)[C@H](C)OC)C(=O)NS(=O)(=O)C1CC1` [Compound 104], for which, in assay [1] (setting [4]), the IC50 was below 100 nM. For the same molecule, the EC50 in assay [2] is below 100 nM.
Consider `C=CC1C[C@]1(NC(=O)[C@@H]1C[C@@H](Oc2nc3c(c4ccccc24)OCOC3)CN1C(=O)[C@@H](NC(=O)OC(C)(C)C)C(C)(C)C)C(=O)NS(=O)(=O)C1CC1` (stereo partly drawn) [Compound 227, BOCNH-P3(L-t-BuGly)-P2[(4R)-(1,3-oxazino[5,6-c]isoquinoline-6-oxo)-S-proline]-P1(1R,2S VinylAcca)-CONHSO2Cyclopropane], for which the IC50 in assay [1] (setting [3]) is below 100 nM. Besides, the EC50 in assay [2] is below 100 nM.
For `C=C[C@@H]1C[C@]1(NC(=O)[C@@H]1C[C@@H](Oc2cc(-c3ccccc3)nc(-c3ccc(OC)cc3)c2)CN1C(=O)[C@@H](NC(=O)OC(C)(C)C)C(C)(C)C)C(=O)NS(=O)(=O)C1CC1` [Compound 414], in assay [1] (setting [3]), the IC50 was below 100 nM. Also, the EC50 in assay [2] is below 100 nM.
For `C=CC1C[C@]1(NC(=O)[C@@H]1C[C@@H](Oc2nc(Br)c(OC)c3ccccc23)CN1C(=O)[C@@H](NC(=O)OC(C)(C)C)C(C)(C)C)C(=O)NS(=O)(=O)C1CC1` (stereo partly shown) [Compound 223], the IC50 in assay [1] (setting [3]) is below 100 nM. For the same molecule, the EC50 in assay [2] is below 100 nM.
In the case of `C=CC1CC1(NC(=O)C1CC(Oc2nc(Br)c(OCOCC[Si](C)(C)C)c3ccccc23)CN1C(=O)C(NC(=O)OC(C)(C)C)C(C)(C)C)C(=O)NS(=O)(=O)C1CC1` (stereo not shown) [Compound 225], the IC50 in assay [1] (setting [3]) is below 100 nM. For the same molecule, the EC50 in assay [2] was in the range of 100 to 1000 nM.
As to `C=C[C@@H]1C[C@]1(NC(=O)[C@@H]1C[C@@H](Oc2nccc3cc(OC)ccc23)CN1C(=O)[C@@H](NC(=O)OC1(C)CCCC1)C(C)(C)C)C(=O)NS(=O)(=O)C1CCC1` [Compound 384], the IC50 in assay [1] (setting [3]) was below 100 nM. The EC50 in assay [2] was below 100 nM.
`C=CC1CC1(NC(=O)C1CC(Oc2nc(-c3ccccc3)nc3ccc(OC)cc23)CN1C(=O)[C@@H](NC(=O)OC(C)(C)C)C(C)(C)C)C(=O)NS(=O)(=O)C(C)C` (mixture of isomers) [Compound 45]: the IC50 in assay [1] (setting [3]) lay in the range of 100 to 1000 nM. Further, in assay [2], the EC50 was in the range of 1000 to 10000 nM.
For the molecule `C=C[C@@H]1C[C@]1(NC(=O)[C@@H]1C[C@@H](Oc2nccc3ccccc23)CN1C(=O)[C@@H](NC(=O)OC(C)(C)C)C(C)(C)C)C(=O)NS(=O)(=O)C1CC1` [Compound 23], in assay [1] (setting [3]), the IC50 was below 100 nM. Also, in assay [2], the EC50 is below 100 nM.
Regarding `C=CC1C[C@]1(NC(=O)[C@@H]1C[C@@H](Oc2nccc3occc23)CN1C(=O)[C@@H](NC(=O)OC(C)(C)C)C(C)(C)C)C(=O)NS(=O)(=O)C1CC1` (stereo partly shown) [Compound 233], the 50% inhibitory concentration (IC50) in assay [1] (setting [3]) was 100 to 1000 nM. In assay [2], the EC50 was 100 to 1000 nM.
Turning to `CC[C@@H]1C[C@]1(NC(=O)[C@@H]1C[C@@H](Oc2nccc3c(C(F)(F)F)cccc23)CN1C(=O)[C@@H](NC(=O)OC(C)(C)C)C(C)(C)C)C(=O)NS(=O)(=O)C1CC1` [Compound 295], in assay [1] (setting [3]), the IC50 is 100 to 1000 nM. Besides, the EC50 in assay [2] was in the range of 1000 to 10000 nM.
The like results for `C=C[C@@H]1C[C@]1(NC(=O)[C@@H]1CC(Oc2nccc3cc(OC)ccc23)CN1C(=O)[C@@H](NC(=O)OC(C)(C)C)[C@@H](C)O)C(=O)NS(=O)(=O)C1CC1` (stereo partly shown) [Compound 91] were, in that order, below 100 nM and 100 to 1000 nM.
On the same counts, the results for `C=CC1C[C@]1(NC(=O)[C@@H]1C[C@@H](Oc2noc3ccccc23)CN1C(=O)[C@@H](NC(=O)OC(C)(C)C)C(C)(C)C)C(=O)NS(=O)(=O)C1CC1` (stereo partly shown) [Compound 334] are 100 to 1000 nM and 100 to 1000 nM.
The like results for `C=CC1C[C@]1(NC(=O)[C@@H]1C[C@@H](Oc2nc(-c3ccc(N(C)C)cc3)cc3cc(OC)ccc23)CN1C(=O)[C@@H](NC(=O)OC(C)(C)C)C(C)(C)C)C(=O)NS(=O)(=O)C1CC1` (stereo partly shown) [Compound 326] were, in that order, below 100 nM and below 100 nM.
`C=C[C@@H]1C[C@]1(NC(=O)[C@@H]1C[C@@H](Oc2nc(N3CCOCC3)cc3cc(OC)ccc23)CN1C(=O)[C@@H](NC(=O)OC(C)(C)C)C(C)(C)C)C(=O)NS(=O)(=O)C1CC1` [Compound 385]: the IC50 in assay [1] (setting [3]) is below 100 nM. In addition, the EC50 in assay [2] is below 100 nM.
On to `C=CC1C[C@]1(NC(=O)[C@@H]1C[C@@H](Oc2nccc3cc(C(C)(C)C)ccc23)CN1C(=O)[C@@H](NC(=O)OC(C)(C)C)C(C)(C)C)C(=O)NS(=O)(=O)C1CC1` (stereo partly drawn) [Compound 191, BOCNH-P3(L-tert-BuGly)-P2[(4R)-(6-tert-butyl isoquinolin-1-oxo)-S-proline]-P1(1R,2S Vinyl Acca)-CONHSO2-Cyclopropane], for which the IC50 in assay [1] (setting [3]) was below 100 nM. Besides, in assay [2], the EC50 is 100 to 1000 nM.
As to `C=C[C@@H]1C[C@]1(NC(=O)[C@@H]1C[C@@H](Oc2nccc3cc(OC)ccc23)CN1C(=O)[C@@H](NC(=O)OC(C)(C)C)[C@H](C)OC)C(=O)NS(=O)(=O)C1CC1` [Compound 94], in assay [1] (setting [3]), the IC50 was below 100 nM. The EC50 in assay [2] was below 100 nM.
On to `C=C[C@@H]1C[C@]1(NC(=O)[C@@H]1C[C@@H](Oc2cc3c(Cl)nccc3cc2OC)CN1C(=O)[C@@H](NC(=O)OC(C)(C)C)C(C)(C)C)C(=O)NS(=O)(=O)C1CC1` [Compound 262], for which the IC50 in assay [1] (setting [3]) was below 100 nM. For the same molecule, the EC50 in assay [2] is below 100 nM.
Take `C=C[C@@H]1C[C@]1(NC(=O)[C@@H]1C[C@@H](Oc2nccc3cc(OC)ccc23)CN1C(=O)[C@@H](NC(=O)OC(C)(C)C(F)(F)F)C(C)(C)C)C(=O)NS(=O)(=O)C1CC1` [Compound 155]: the IC50 in assay [1] (setting [3]) is below 100 nM. In assay [2], the EC50 was below 100 nM.
As to `C=C[C@@H]1C[C@]1(NC(=O)[C@@H]1C[C@@H](Oc2ccnc(-c3ccc(F)cc3)c2)CN1C(=O)[C@@H](NC(=O)OC1CCCC1)C(C)(C)C)C(=O)NS(=O)(=O)C1CC1` [Compound 427], the IC50 in assay [1] (setting [3]) is below 100 nM. Further, in assay [2], the EC50 was in the range of 100 to 1000 nM.
The like results for `C=C[C@@H]1C[C@]1(NC(=O)[C@@H]1C[C@@H](Oc2nccc3cc4c(cc23)OC(F)(F)O4)CN1C(=O)[C@@H](NC(=O)OC(C)(C)C)C(C)(C)C)C(=O)NS(=O)(=O)C1CC1` [Compound 288] were, in that order, below 100 nM and 1000 to 10000 nM.
The like results for `C=C[C@@H]1C[C@]1(NC(=O)[C@@H]1CC(Oc2nccc3cc(OC)ccc23)CN1C(=O)[C@@H](NC(=O)NC(C)(C)c1ccccc1)C(C)(C)C)C(=O)NS(=O)(=O)C1CC1` (stereo partly shown) [Compound 83] were, in that order, below 100 nM and 100 to 1000 nM.
On to `C=C[C@@H]1C[C@]1(NC(=O)[C@@H]1C[C@@H](Oc2nccc3cc(OC)ccc23)CN1C(=O)[C@@H](N)[C@H](C)OC)C(=O)NS(=O)(=O)C1CC1` [Compound 100], for which the 50% inhibitory concentration (IC50) in assay [1] (setting [4]) is 100 to 1000 nM. Further, the EC50 in assay [2] fell in the range of 1000 to 10000 nM.
For the molecule `C=CC1C[C@]1(NC(=O)[C@@H]1C[C@@H](Oc2nc(-c3ccc(N(CC)CC)cc3)cc3cc(OC)ccc23)CN1C(=O)[C@@H](NC(=O)OC(C)(C)C)C(C)(C)C)C(=O)NS(=O)(=O)C1CC1` (stereo partly shown) [Compound 327], in assay [1] (setting [3]), the IC50 was below 100 nM. In addition, the EC50 in assay [2] was below 100 nM.
Regarding `C=CC1C[C@]1(NC(=O)[C@@H]1C[C@@H](Oc2nc3c(c4ccccc24)OCC3)CN1C(=O)[C@@H](NC(=O)OC(C)(C)C)C(C)(C)C)C(=O)NS(=O)(=O)C1CC1` (stereo partly drawn) [Compound 219, BOCNH-P3(L-t-BuGly)-P2[(4R)-(2,3-dihydro-1-oxa-4aza -cyclopenta[α]naphthalen-5-yloxy)-S-proline]-P1(1R,2S VinylAcca)-CONHSO2Cyclopropane], the IC50 in assay [1] (setting [3]) is below 100 nM. The EC50 in assay [2] was below 100 nM.
Regarding `C=C[C@@H]1C[C@]1(NC(=O)[C@@H]1C[C@@H](Oc2cc(-c3cccc(OC)c3)nc3c(C)noc23)CN1C(=O)[C@@H](NC(=O)OC(C)(C)C)C(C)(C)C)C(=O)NS(=O)(=O)C1CC1` [Compound 5], in assay [1] (setting [3]), the IC50 is below 100 nM. Further, in assay [2], the EC50 was below 100 nM.
Consider `C=C[C@@H]1C[C@]1(NC(=O)[C@@H]1C[C@@H](Oc2nc(C#N)cc3ccccc23)CN1C(=O)[C@@H](NC(=O)OC(C)(C)C)C(C)(C)C)C(=O)NS(=O)(=O)C1CC1` [Compound 32], for which, in assay [1] (setting [3]), the IC50 is below 100 nM. Further, in assay [2], the EC50 is below 100 nM.
Turning to `C=C[C@@H]1C[C@]1(NC(=O)[C@@H]1C[C@@H](Oc2nccc3c2ccc2occc23)CN1C(=O)[C@@H](NC(=O)OC(C)(C)C)C(C)(C)C)C(=O)NS(=O)(=O)C1CC1` [Compound 268], the IC50 in assay [1] (setting [3]) is below 100 nM. In addition, the EC50 in assay [2] was below 100 nM.
Turning to `C=CC1C[C@]1(NC(=O)[C@@H]1C[C@@H](Oc2nccc(-c3nccs3)n2)CN1C(=O)[C@@H](NC(=O)CC1CC1)C(C)(C)C)C(=O)NS(=O)(=O)C1CC1` (stereo partly shown) [Compound 340], the IC50 in assay [1] (setting [3]) was below 100 nM. For the same molecule, the EC50 in assay [2] lay within 10000 to 100000 nM.
`C=C[C@@H]1C[C@]1(NC(=O)[C@@H]1C[C@@H](Oc2ccnc(-c3cccn3C)c2)CN1C(=O)[C@@H](NC(=O)OC(C)(C)C)C(C)(C)C)C(=O)NS(=O)(=O)C1CC1` [Compound 434]: the IC50 in assay [1] (setting [3]) is below 100 nM. Besides, the EC50 in assay [2] fell in the range of 100 to 1000 nM.

These data come from patent US7915291B2, “Hepatitis C virus inhibitors” (Bristol-Myers Squibb Company, priority 2002, dated 2011).
